The source of these data is patent publication US10906169B1, “Muscle-powered biological machines” (The Board of Trustees of the University of Illinois, priority 2016, dated 2021).

The test system of assay [1] is MNs in multi-layered tissue rings. The assay can be described thus: Chemical stimulation of motor neurons in multi-layered tissue rings (muscle contraction tracked by video). In kind it is cell-based, mouse. The conditions noted are these: for frequency of muscle twitching / average displacement: day 9 after co-culture; for effect on glutamate-induced muscle contractions: 25 μM curare added after glutamate stimulation. As for the experimental part: To stimulate motor neurons in tissue rings, glutamate was added to cell culture medium in a bath application of either 200 μM or 400 μM, as noted. Tissues were then transferred to fresh medium. After chemical stimulation, the nicotinic AChR antagonist curare was added to cell culture medium in a bath application of 25 μM. Tissues were then rinsed in PBS and transferred to fresh medium.
Muscle contraction within tissue rings was captured using a digital camera on a stereomicroscope with a capture rate of 5-10 frames s^−1. Image sequences were exported to .avi files. A custom Matlab script was used to calculate x-y displacement of user-specified regions of interest using normalized 2D cross-correlation, as described previously^3.
On day 9 after co-culture, we chemically stimulated MNs by adding glutamate. Multi-layered tissue rings were first subjected to a bath application of 200 μM glutamate in complete neural differentiation medium. Through video recordings, we observed that local muscle contraction began in response to chemical stimulation of MNs (FIG. 16d). When we increased the glutamate concentration from 200 to 400 μM, the frequency of muscle twitching increased from 1.08 to 1.33 contractions sec^−1, while the average displacement decreased from 6.3±0 to 4.4±0.2 μm per twitch (FIG. 16e).

For the next assay, the system named is EBs containing MNs. The assay can be described thus: Neurite growth from embryoid bodies on 2D ECM-coated substrates. In kind it is cell-based, mouse. As for the experimental part:
4. Neurite Growth Measurements. After day 9 of differentiation, EBs were plated on either collagen I or Matrigel™ coated dishes in complete neural differentiation medium. […] Live samples were imaged on days 10-14 using an inverted fluorescent microscope for 2D cultures (IX81, Olympus) or a confocal microscope for 3D tissue rings (LSM710, Zeiss). The NeuronJ plug-in (ImageScience) for ImageJ was used to measure neurite growth distances (FIG. 17).
When allowed to adhere to natural ECM substrates such as collagen I13A and Matrigel™ (FIG. 13b and FIG. 19b), EBs containing MNs attached readily and extended neurites across the gels. Neurites grew 417.5±154.8 and 999.1+356.9 μm after 4 days of attachment (propagating at nearly linear rates of 88.6 and 264.8 μm day^−1) on collagen I and Matrigel™ surfaces, respectively (FIG. 13c). Similarly, EBs adhered to (and extended neurites across) the surface of 2D layers of differentiated C2C12s (FIG. 13d and FIG. 19c). After 5 days of co-culture, we identified clusters of post-synaptic acetylcholine receptors (visualized with fluorescently-conjugated α-BTX, which binds to a subunit of AChR) near the termination of neurite extensions on myotubes (FIG. 13e).

Entries after “also recorded” stand apart in the source; their conditions may differ.

Take `N[C@@H](CCC(=O)O)C(=O)O` [glutamate, L-glutamic acid]: the frequency of contraction in assay [1] (200 μM glutamate (FIG. 16e, mean values)) was found to be 1.08 contractions/s; in assay [1] (400 μM glutamate (FIG. 16e, mean values)), 1.33 contractions/s. Further, the entries for the “frequency of muscle twitching” value in assay [1] (200 μM glutamate bath application) and in assay [1] (400 μM glutamate bath application) were 1.08 contractions sec^−1 and 1.33 contractions sec^−1, respectively. The figures for the average displacement in assay [1] (200 μM glutamate) and in assay [1] (400 μM glutamate) were 6.3±0 μm per twitch and 4.4±0.2 μm per twitch, respectively. For the same compound, the “dependence of contraction frequency on concentration” value in assay [1] (chemical stimulation of MNs, 200 and 400 μM glutamate) is recorded as “frequency of contraction increasing with glutamate concentration”.
Consider “(+)-tubocurarine chloride hydrochloride pentahydrate [curare]”, for which, in assay [1] (25 μM curare (FIG. 16e)), the “frequency of contraction after addition” value amounted to 0 observed contractions. The results for the “effect on glutamate-induced muscle contractions” value in assay [1] and in assay [1] (listed as tubocurarine chloride (curare)) were “halted the contractions; also recorded: terminated the contractions” and “halted the contractions”, respectively.
Take “collagen I: natural ECM substrate; collagen I-coated dishes from Gibco”: the “rate of neurite propagation (nearly linear)” value in the assay with EBs containing MNs (EBs attached to the coated surface, over 4 days) amounted to 88.6 μm day^−1. For the same compound, the neurite growth with EBs containing MNs (after 4 days of attachment of EBs to the coated surface) was 417.5±154.8 μm.
